16 compounds from ChEMBL document CHEMBL3877297, “Chemical exploration of 4-(4-fluorobenzyl)piperidine fragment for the development of new tyrosinase inhibitors” (Eur J Med Chem, 2017) can be followed below.

The target in experiment [1] is T1, Mushroom tyrosinase (Agaricus bisporus, UniProt O42713+Q00024+C7FF04+C7FF05). In words: Inhibition of mushroom tyrosinase monophenolase activity using L-tyrosine as substrate measured after 30 mins.
For experiment [2], the target named is T1, Mushroom tyrosinase. In words: Inhibition of mushroom tyrosinase diphenolase activity using L-DOPA as substrate measured after 5 mins.
Experiment [3] concerns the target T1, Mushroom tyrosinase. In words: Inhibition of mushroom tyrosinase assessed as reduction in formation of dopachrome using L-DOPA as substrate.
The target in experiment [4] is T2, Mushroom tyrosinase (Agaricus bisporus) (UniProt O42713+Q00024+C7FF04+C7FF05). The experiment is described as follows: Potency index, ratio of 3-(4-benzylpiperidin-1-yl)-1-(1H-indol-3-yl)propan-1-one IC50 to compound IC50 for mushroom tyrosinase monophenolase activity.
For experiment [5], the target named is T2, Mushroom tyrosinase (Agaricus bisporus). The experiment is described as follows: Potency index, ratio of 3-(4-benzylpiperidin-1-yl)-1-(1H-indol-3-yl)propan-1-one IC50 to compound IC50 for mushroom tyrosinase diphenolase activity.
Experiment [6] has the same target. In words: Mixed-type inhibition of mushroom tyrosinase diphenolase activity at 4 to 16 uM using varying levels of L-DOPA as substrate by Lineweaver-Burk plot analysis.
For experiment [7] the target is unchanged. In words: Non-competitive inhibition of mushroom tyrosinase diphenolase activity at 4 to 16 uM using varying levels of L-DOPA as substrate by Lineweaver-Burk plot analysis.
For experiment [8] the target is unchanged. In words: Non-competitive inhibition of mushroom tyrosinase diphenolase activity at 25 to 100 uM using varying levels of L-DOPA as substrate by Lineweaver-Burk plot analysis.

Each structure is given as a SMILES string. Calls of active or inactive are those of the source. The calls are words filed in the database; no cut-off is given here. A value given as a limit tells only on which side of the number the result lay.

As for `O=C(CCN1CCC(Cc2ccc(F)cc2)CC1)Nc1cc[nH]n1`, the IC50 in experiment [1] worked out at 5.87 µM; in experiment [2], 39.58 µM.
For the compound `COc1cccc2c1c(C(=O)C(=O)Nc1cn[nH]n1)cn2Cc1ccc(F)cc1`, in experiment [3], the IC50 amounted to 372 µM.
With `COc1ccc2[nH]cc(C(=O)CCN3CCC(Cc4ccccc4)CC3)c2c1`, the IC50 amounted to 25.78 µM in experiment [1] and 197.45 µM in experiment [2]. Besides, the Ratio IC50 in experiment [4] was determined as 7.
In the case of `COc1cc2[nH]cc(C(=O)CCN3CCC(Cc4ccc(F)cc4)CC3)c2cc1OC`, the figures for the IC50 in experiment [1] and in experiment [2] were 5.11 µM and 7.56 µM, respectively. Further, the Ratio IC50 in experiment [5] was below 35. For the same compound, the inhibition result in experiment [6] is “Active”.
Regarding `COc1cc2[nH]cc(C(=O)CCN3CCC(Cc4ccccc4)CC3)c2cc1OC`, the figures for the IC50 in experiment [1] and in experiment [2] were 57.24 µM and 133 µM, respectively.
For the compound `CCN1CCC(Cc2ccc(F)cc2)CC1`, the IC50 in experiment [1] was determined as 32.17 µM; in experiment [2], 116 µM.
For the compound `O=C(CCN1CCC(Cc2ccccc2)CC1)c1c[nH]c2ccccc12`, the IC50 in experiment [1] was determined as 175 µM; in experiment [2] it was 252 µM.
The corresponding values for `Cc1cc(NC(=O)CCN2CCC(Cc3ccc(F)cc3)CC2)on1` are 28.55 µM and 110.95 µM.
For the compound `O=C(CCN1CCC(Cc2ccc(F)cc2)CC1)c1c[nH]c2ccccc12`, the IC50 in experiment [1] is 9.45 µM; in experiment [2], 8.82 µM. Moreover, in experiment [5], the Ratio IC50 is below 35. Moreover, the inhibition entry in experiment [7] was “Active”.
Consider `O=C(CCN1CCC(Cc2ccc(F)cc2)CC1)Nc1ccccc1`, for which the IC50 in experiment [1] came out at 28.85 µM; in experiment [2], 27.9 µM. Besides, the inhibition result in experiment [8] was “Active”.
Take `O=C(CCN1CCC(Cc2ccc(F)cc2)CC1)NCc1ccccc1`: the IC50 is 13.98 µM in experiment [1] and 83 µM in experiment [2].
The like results for `COc1ccc2c(C(=O)CCN3CCC(Cc4ccccc4)CC3)c[nH]c2c1` were, in that order, 67.25 µM and 168.55 µM.
Turning to `COc1ccc2c(C(=O)CCN3CCC(Cc4ccc(F)cc4)CC3)c[nH]c2c1`, the figures for the IC50 in experiment [1] and in experiment [2] were 9.4 µM and 18.03 µM, respectively. Besides, the Ratio IC50 in experiment [5] was below 35. Moreover, the inhibition result in experiment [7] is “Active”.
With `COc1cccc2c1c(C(=O)/C=C(\O)C(=O)O)cn2Cc1ccc(F)cc1`, the IC50 in experiment [3] stood at 224 µM.
For the compound `O=C(CCN1CCC(Cc2ccc(F)cc2)CC1)n1cnc2ccccc21`, the IC50 came to 113.34 µM in experiment [1] and 159.24 µM in experiment [2].
As for `COc1ccc2[nH]cc(C(=O)CCN3CCC(Cc4ccc(F)cc4)CC3)c2c1`, the results for the concentration for half-maximal inhibition (IC50) in experiment [1] and in experiment [2] were 7.86 µM and 14.15 µM, respectively. Also, the Ratio IC50 in experiment [5] was below 35. For the same compound, the inhibition entry in experiment [7] was “Active”.

The term IC50 denotes the concentration needed to halve the response being measured.
